Results reported in US20240209022A1, “NOVEL PEPTIDE HAVING ANTI-INFLAMMATORY AND TISSUE REGENERATIVE ACTIONS” (KOREA RESEARCH INSTITUTE OF BIOSCIENCE AND BIOTECHNOLOGY, priority 2020, published 2024).
“Also recorded” adds a separate entry of the source.

Tests used:
[1] = tested on: collagen induced arthritis (CIA) model; experiment: Collagen induced arthritis (CIA) rheumatoid arthritis model; format: in vivo, DBA/1J mice; conditions: vs PBS buffer group; for thickness of the ankle joint: at the end of the experiment
[2] = tested on: gastritis/gastric ulcer model; experiment: HCl/ethanol gastritis/gastric ulcer model; format: in vivo, C57BL/6J mice; conditions: vs PBS buffer group; for degree of gastric mucosal damage (score): oral, 1 hour after HCl/ethanol
Procedure: For a gastritis/gastric ulcer model, 7-week-old male C57BL/6J mice were used, and from 3 days before induction, the peptides of the present invention were dissolved in PBS buffer and then orally administered to the mice by 150 μL per animal at the same time once a day. Amuc_1409 or PEP001, PEP002, PEP003, PEP004, or PEP005 was dissolved in PBS buffer at a concentration of 6.7 μM, and novel tetrapeptides PEP006, PEP007, PEP008, PEP009, and PEP010 and novel tripeptides PEP011, PEP012, and PEP013 were each dissolved in PBS buffer at a concentration of 0.15 μg/150 μL (PEP006) or 0.2 μg/150 μL (PEP007, PEP008, PEP009, PEP010, PEP011, PEP012, and PEP013). For the induction of acute gastritis/gastric ulcer, 0.3 M HCl/60% ethanol was orally administered to the mice by 0.2 mL for each, the tissue was harvested after 1 hour, photographs of the inner surface of the stomach were taken, and the degree of damage to the stomach was compared. Measurements of gastritis/gastric ulcer indexes were converted into scores according to the degree of mucosal damage. A score of 0 was given if there was no damage, a score of 1 was given to an insignificant circle-shaped hemorrhagic corrosion site of less than 5 mm, a score of 2 was given to a hemorrhagic corrosion site with a length more than 5 mm, and a score of 3 was given to one or more hemorrhagic corrosion sites corresponding to the score of 2, a score of 4 was given to a hemorrhagic corrosion of more than 5 mm in length and less than 2 mm in width, a score of 5 was given to 2 to 3 hemorrhagic corrosions corresponding to the score of 4, a score of 6 was given to 4 to 5 hemorrhagic corrosions corresponding to the score of 4, a score of 7 was given to 6 or more hemorrhagic corrosions corresponding to the score of 4, and a score of 8 was given if there was hemorrhagic corrosion throughout the gastric mucosa. In order to confirm additional anti-inflammatory activity of the administered peptides, mRNA expression of inflammation-related genes, Tnfα, Il-1β, iNos, Cox2, and Il-10, in the gastric mucosal tissue was examined.

[3] = tested on: non-alcoholic hepatitis model; experiment: High-fat diet-induced non-alcoholic steatohepatitis model, liver gene expression; format: in vivo, C57BL/6J mice; conditions: RT-qPCR; vs PBS buffer group
Procedure: A non-alcoholic hepatitis model was induced by feeding a high-fat diet to 8-week-old SPF male C57BL/6J mice. The experiment for groups administered with Amuc_1409 and PEP001 to PEP005 was performed as follows. Mice fed a high-fat diet for 45 weeks were fed a high-fat diet for an additional 3 weeks, and Amuc_1409 was dissolved in PBS buffer at a concentration of 2.4 μM and then orally administered to the mice by 150 μL per animal at the same time once a day until the end of the experiment, or mice fed a high-fat diet for 8 weeks were fed a high-fat diet for an additional 3 weeks, and PEP001, PEP002, PEP003, PEP004, or PEP005 was dissolved in PBS buffer at a concentration of 2.4 μM and then orally administered to the mice by 150 μL per animal at the same time once a day until the end of the experiment. To the control group, PBS buffer was orally administered in the same manner. The experiment for groups administered with PEP006 to PEP013 was performed as follows. The non-alcoholic hepatitis model was induced by ad libitum feeding of a high-fat diet for 32, 50, or 53 weeks. Mice fed a high-fat diet for 50 weeks were fed a high-fat diet for an additional 3 weeks, and a novel tetrapeptide PEP006, PEP007, PEP008, PEP009, or PEP010 was dissolved in PBS buffer at a concentration of 0.2 μg/150 μL and then orally administered to the mice by 150 μL per animal at the same time until the end of the test, and mice fed a high-fat diet for 53 weeks were fed a high-fat diet for an additional 3 weeks, and a novel […] PEP011, PEP012, or PEP013 was dissolved in PBS buffer at a concentration of 0.2 μg/150 μL and then orally administered to the mice by 150 μL per animal at the same time until the end of the test. To the control group, PBS buffer was orally administered in the same manner. At the end of the experiment, a part of the liver harvested was homogenized with Trizol to extract RNA. Reverse transcriptase was added to the obtained RNA and reacted to synthesize cDNA, and SYBR Green and primers were added to perform quantitative real-time PCR (RT-qPCR), and then the expression levels of genes such as Tnfα, Il-1β, Il-10, and Il-1rn were quantified.

RGAY (PEP007)
thickness of the ankle joint [1]: significantly decreased | arthritis index (clinical score by date) [1]: significantly decreased from day 28 after the first CII injection to the experiment end day | swelling of the hind paws by macrophotography [1]: remarkably improved | degree of gastric mucosal damage (score) [2]: decreased to a significant level | Ifnγ gene expression in liver tissue [3]: tended to decrease | Il-6 gene expression in liver tissue [3]: tended to decrease | Tnfα gene expression in liver tissue [3]: significantly decreased

AIS [PEP013]
thickness of the ankle joint [1]: tended to decrease | arthritis index (clinical score by date) [1]: tended to decrease | swelling of the hind paws by macrophotography [1]: relieved overall | degree of gastric mucosal damage (score) [2]: significantly decreased | Ifnγ gene expression in liver tissue [3]: tended to decrease | Il-1p gene expression in liver tissue [3]: significantly decreased

IGAY (PEP008)
thickness of the ankle joint [1]: significantly decreased | arthritis index (clinical score by date) [1]: significantly decreased from day 30 to day 32 after the first CII | swelling of the hind paws by macrophotography [1]: remarkably improved | degree of gastric mucosal damage (score) [2]: decreased to a significant level | Ifnγ gene expression in liver tissue [3]: decreased close to a significant level | Il-1p gene expression in liver tissue [3]: significantly decreased | Il-6 gene expression in liver tissue [3]: tended to decrease | Tnfα gene expression in liver tissue [3]: significantly decreased

AGAY (PEP006)
thickness of the ankle joint [1]: significantly decreased | arthritis index (clinical score by date) [1]: significantly decreased on day 28 after the first injection of CII; also recorded: tended to decrease from day 30 to the experiment end day | swelling of the hind paws by macrophotography [1]: remarkably improved | degree of gastric mucosal damage (score) [2]: significantly decreased | Tnfα gene expression in liver tissue [3]: tended to decrease

SGAY (PEP009)
thickness of the ankle joint [1]: significantly decreased | arthritis index (clinical score by date) [1]: significantly decreased from day 30 after the first CII injection to the experiment end day | swelling of the hind paws by macrophotography [1]: remarkably improved | degree of gastric mucosal damage (score) [2]: decreased to a significant level | Ifnγ gene expression in liver tissue [3]: tended to decrease | Il-1p gene expression in liver tissue [3]: significantly decreased | Il-6 gene expression in liver tissue [3]: tended to decrease | Tnfα gene expression in liver tissue [3]: tended to decrease

AQS [PEP011]
thickness of the ankle joint [1]: significantly decreased | arthritis index (clinical score by date) [1]: significantly decreased from day 30 after the first CII injection to the experiment end day | swelling of the hind paws by macrophotography [1]: relieved overall | degree of gastric mucosal damage (score) [2]: significantly decreased | Ifnγ gene expression in liver tissue [3]: tended to decrease | Il-1p gene expression in liver tissue [3]: tended to decrease

VGAY (PEP010)
thickness of the ankle joint [1]: significantly decreased | arthritis index (clinical score by date) [1]: significantly decreased from day 30 after the first CII injection to the experiment end day | swelling of the hind paws by macrophotography [1]: remarkably improved | degree of gastric mucosal damage (score) [2]: significantly decreased | Ifnγ gene expression in liver tissue [3]: tended to decrease | Il-1p gene expression in liver tissue [3]: significantly decreased | Il-6 gene expression in liver tissue [3]: tended to decrease | Tnfα gene expression in liver tissue [3]: tended to decrease

AVSSIKGAY (PEP001)
thickness of the ankle joint [1]: significantly decreased | arthritis index (clinical score by date) [1]: significantly decreased from day 30 after the first CII injection to the experiment end day | swelling of the hind paws by macrophotography [1]: reduced overall | Cox2 expression in gastric mucosal tissue ([2]; RT-qPCR): significantly decreased | Il-1p expression in gastric mucosal tissue ([2]; RT-qPCR): significantly decreased | Tnfα mRNA expression in gastric mucosal tissue ([2]; RT-qPCR): significantly decreased | iNos mRNA expression in gastric mucosal tissue ([2]; RT-qPCR): significantly decreased | degree of gastric mucosal damage (score) [2]: significantly decreased | 11-10, which is an anti-inflammatory index (liver gene expression) [3]: significantly increased | Il-1p gene expression in liver tissue [3]: decreased close to a significant level
